Source: patent US11512079B2, “Heterocycle substituted pyridine derivative antifungal agents” (Amplyx Pharmaceuticals, Inc., priority 2017, dated 2022)
Values after ≈ are worked out from the molar mass of the structure shown.

Columns and labels:
Assay type in all cases: cell-based
Candida albicans 90028 = test: In vitro antifungal assay (Example IX), microdilution broth, MIC; details: minimum inhibitory concentration (≥50% inhibition), 35° C., 40-48 h, RPMI1640
Outline: (§1)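 CLSI broth microdilution in RPMI1640 with 2.5×10^3 cells/mL and final compound concentrations of 2-0.0019 μg/mL (1% DMSO). C. albicans 90028 plates were incubated at 35° C. for 40-48 h and C. neoformans H99 for 72 h. MIC was read as minimum inhibitory concentration, verified at 600 nm.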

[1] = test system: Cryptococcus neoformans H99; test: as above; details: minimum inhibitory concentration (≥50% inhibition), 35° C., 72 h, RPMI1640
Outline: as §1

[2] = test system: Aspergillus fumigatus MYA3626; test: In vitro antifungal assay (Example IX), microdilution broth, MEC; details: minimum effective concentration (shortening of hyphae), 35° C., 40-48 h, RPMI1640
Outline: (§2)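 Spore suspensions of A. fumigatus and R. pusillus adjusted to 1-2×10^4 spores/mL in RPMI1640 and exposed to compound dilutions prepared in DMSO, by broth microdilution. MEC taken as the lowest concentration shortening hyphae versus DMSO control wells, read as for echinocandins.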

[3] = test system: Rhizomucor pusillus 46342; test: as above; details: minimum effective concentration (shortening of hyphae), 35° C., 40-48 h, RPMI1640
Outline: as §2

Cryptococcus gattii = test: In vitro antifungal assay (Example IX), microdilution broth, MIC; details: minimum inhibitory concentration (≥50% inhibition), 35° C., 72 h (Cryptococcus), RPMI1640
Outline: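 Broth microdilution in RPMI1640 with 2.5×10^3 cells/mL inoculum; final compound concentrations were 2–0.0019 μg/mL, with 1% DMSO. Cryptococcus plates were incubated at 35 °C for 72 h, and growth was read at 600 nm to give the MIC.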

SMILES	MIC (Candida albicans 90028) [µg/mL]	MIC [1] [µg/mL]	minimal effective concentration [2] [µg/mL]	minimal effective concentration [3] [µg/mL]	MIC (Cryptococcus gattii) [µg/mL]
Cc1cncc(COc2ccc(Cc3cc(-c4cccnc4N)on3)cc2)c1 [compound 114, 3-(3-(4-((5-methylpyridin-3-yl)methoxy)benzyl)isoxazol-5-yl)pyridin-2-amine]	0.1 to 1 (≈ 0.269 to 2.69 µM)	0.1 to 1 (≈ 0.269 to 2.69 µM)	0.01 to 0.1	> 1	0.1 to 1 (≈ 0.269 to 2.69 µM)
Nc1ncccc1-c1cc(Cc2ccc(OCc3cncc(F)c3)cc2)no1 [compound 115, 3-(3-(4-((5-fluoropyridin-3-yl)methoxy)benzyl)isoxazol-5-yl)pyridin-2-amine]	0.1 to 1 (≈ 0.266 to 2.66 µM)	0.1 to 1 (≈ 0.266 to 2.66 µM)	0.01 to 0.1	> 1	0.1 to 1 (≈ 0.266 to 2.66 µM)
Nc1ncccc1-c1cc(Cc2ccc(OCc3ccnc(Cl)c3)cc2)no1 [compound 117, 3-(3-(4-((2-chloropyridin-4-yl)methoxy)benzyl)isoxazol-5-yl)pyridin-2-amine]	0.1 to 1 (≈ 0.255 to 2.55 µM)	0.01 to 0.1 (≈ 0.0255 to 0.255 µM)	0.01 to 0.1	> 1	≤ 0.01
N#Cc1cccc(COc2ccc(Cc3cc(-c4cccnc4N)on3)cc2)n1 [compound 118, 6-((4-((5-(2-aminopyridin-3-yl)isoxazol-3-yl)methyl)phenoxy)methyl)picolinonitrile]	0.1 to 1 (≈ 0.261 to 2.61 µM)	0.1 to 1 (≈ 0.261 to 2.61 µM)	0.1 to 1	> 1	0.1 to 1 (≈ 0.261 to 2.61 µM)
Nc1ncccc1-c1cc(Cc2ccc(Cc3ccoc3)cc2)no1 [compound 120, 3-(3-(4-(furan-3-ylmethyl)benzyl)isoxazol-5-yl)pyridin-2-amine]	0.01 to 0.1 (≈ 0.0302 to 0.302 µM)	0.01 to 0.1 (≈ 0.0302 to 0.302 µM)	≤ 0.01	0.1 to 1	0.01 to 0.1 (≈ 0.0302 to 0.302 µM)
Nc1ncccc1-c1cc(Cc2ccc(Cc3ccco3)cc2)no1 [compound 121, 3-(3-(4-(furan-2-ylmethyl)benzyl)isoxazol-5-yl)pyridin-2-amine]	0.01 to 0.1 (≈ 0.0302 to 0.302 µM)	0.01 to 0.1 (≈ 0.0302 to 0.302 µM)	≤ 0.01	0.01 to 0.1	0.01 to 0.1 (≈ 0.0302 to 0.302 µM)
Cc1ccc(Cc2ccc(Cc3cc(-c4cccnc4N)on3)cc2)o1 [compound 122, 3-(3-(4-((5-methylfuran-2-yl)methyl)benzyl)isoxazol-5-yl)pyridin-2-amine]	≤ 0.01	0.01 to 0.1 (≈ 0.029 to 0.29 µM)	≤ 0.01	0.01 to 0.1	0.01 to 0.1 (≈ 0.029 to 0.29 µM)
Nc1ncccc1-c1cc(Cc2ccc(CC3=CCOC3)cc2)no1 [compound 123, 3-(3-(4-((2,5-dihydrofuran-3-yl)methyl)benzyl)isoxazol-5-yl)pyridin-2-amine]	0.01 to 0.1 (≈ 0.03 to 0.3 µM)	0.1 to 1 (≈ 0.3 to 3 µM)	0.01 to 0.1	> 1	0.01 to 0.1 (≈ 0.03 to 0.3 µM)
Nc1ncccc1-c1cc(Cc2ccc(Cc3ccc(F)o3)cc2)no1 [compound 124, 3-(3-(4-((5-fluorofuran-2-yl)methyl)benzyl)isoxazol-5-yl)pyridin-2-amine]	0.01 to 0.1 (≈ 0.0286 to 0.286 µM)	0.01 to 0.1 (≈ 0.0286 to 0.286 µM)	0.01 to 0.1	0.01 to 0.1	0.01 to 0.1 (≈ 0.0286 to 0.286 µM)
Nc1ncccc1-c1cc(Cc2cnc(SCc3ccccc3)nc2)no1 [compound 125, 3-(3-((2-(benzylthio)pyrimidin-5-yl)methyl)isoxazol-5-yl)pyridin-2-amine]	0.1 to 1 (≈ 0.266 to 2.66 µM)	> 1	0.1 to 1	> 1	> 1
Nc1ncccc1-c1cc(Cc2ccc(OCc3ccccc3F)nc2)no1 [compound 127, 3-(3-((6-((2-fluorobenzyl)oxy)pyridin-3-yl)methyl)isoxazol-5-yl)pyridin-2-amine]	0.01 to 0.1 (≈ 0.0266 to 0.266 µM)	0.01 to 0.1 (≈ 0.0266 to 0.266 µM)	≤ 0.01	0.1 to 1	0.01 to 0.1 (≈ 0.0266 to 0.266 µM)
Nc1ncccc1-c1cc(Cc2ccc(Oc3cccc(F)c3)nc2)no1 [compound 130, 3-(3-((6-(3-fluorophenoxy)pyridin-3-yl)methyl)isoxazol-5-yl)pyridin-2-amine]	0.01 to 0.1 (≈ 0.0276 to 0.276 µM)	≤ 0.01	0.01 to 0.1	0.1 to 1	0.01 to 0.1 (≈ 0.0276 to 0.276 µM)
Nc1ncccc1-c1cc(Cc2ccc(Oc3ccccc3F)nc2)no1 [compound 131, 3-(3-((6-(2-fluorophenoxy)pyridin-3-yl)methyl)isoxazol-5-yl)pyridin-2-amine]	0.01 to 0.1 (≈ 0.0276 to 0.276 µM)	0.01 to 0.1 (≈ 0.0276 to 0.276 µM)	0.01 to 0.1	0.1 to 1	0.01 to 0.1 (≈ 0.0276 to 0.276 µM)
Nc1ccc(-c2cc(Cc3ccc(OCc4ccccc4)cc3)no2)c(N)n1 [compound 132, 3-(3-(4-(benzyloxy)benzyl)isoxazol-5-yl)pyridine-2,6-diamine]	0.01 to 0.1 (≈ 0.0269 to 0.269 µM)	0.01 to 0.1 (≈ 0.0269 to 0.269 µM)	≤ 0.01	0.1 to 1	0.01 to 0.1 (≈ 0.0269 to 0.269 µM)
Nc1ccc(-c2cc(Cc3ccc(Oc4cccc(F)n4)cc3)no2)c(N)n1 [compound 134, 3-(3-(4-((6-fluoropyridin-2-yl)oxy)benzyl)isoxazol-5-yl)pyridine-2,6-diamine]	0.1 to 1 (≈ 0.265 to 2.65 µM)	0.01 to 0.1 (≈ 0.0265 to 0.265 µM)	0.1 to 1	0.1 to 1	0.01 to 0.1 (≈ 0.0265 to 0.265 µM)
CC(C)=CCOc1ccc(Cc2cc(-c3ccc(N)nc3N)on2)cc1 [compound 135, 3-(3-(4-((3-methylbut-2-en-1-yl)oxy)benzyl)isoxazol-5-yl)pyridine-2,6-diamine]	0.1 to 1 (≈ 0.285 to 2.85 µM)	0.01 to 0.1 (≈ 0.0285 to 0.285 µM)	0.01 to 0.1	0.1 to 1	0.1 to 1 (≈ 0.285 to 2.85 µM)
Nc1ccc(-c2cc(Cc3ccc(CNc4ccccc4)cc3)no2)c(N)n1 [compound 136, 3-(3-(4-((phenylamino)methyl)benzyl)isoxazol-5-yl)pyridine-2,6-diamine]	0.1 to 1 (≈ 0.269 to 2.69 µM)	0.1 to 1 (≈ 0.269 to 2.69 µM)	0.01 to 0.1	0.01 to 0.1	0.1 to 1 (≈ 0.269 to 2.69 µM)
Nc1ncccc1-c1cc(Cc2ccc(COc3cccc(F)n3)cc2)no1 [compound 137, 3-(3-(4-(((6-fluoropyridin-2-yl)oxy)methyl)benzyl)isoxazol-5-yl)pyridin-2-amine]	0.01 to 0.1 (≈ 0.0266 to 0.266 µM)	0.1 to 1 (≈ 0.266 to 2.66 µM)	0.01 to 0.1	> 1	0.01 to 0.1 (≈ 0.0266 to 0.266 µM)
Nc1ncccc1-c1cc(Cc2ccc(Sc3ccccc3)nc2)no1 [compound 186, 3-(3-((6-(phenylthio)pyridin-3-yl)methyl)isoxazol-5-yl)pyridin-2-amine]	0.01 to 0.1 (≈ 0.0277 to 0.277 µM)	0.1 to 1 (≈ 0.277 to 2.77 µM)	0.01 to 0.1	> 1	0.01 to 0.1 (≈ 0.0277 to 0.277 µM)
Nc1ncccc1-c1cc(Cc2ccc(OCc3ccc(F)cc3)nc2)no1 [compound 187, 3-(3-((6-((4-fluorobenzyl)oxy)pyridin-3-yl)methyl)isoxazol-5-yl)pyridin-2-amine]	0.1 to 1 (≈ 0.266 to 2.66 µM)	0.1 to 1 (≈ 0.266 to 2.66 µM)	0.1 to 1	0.1 to 1	0.01 to 0.1 (≈ 0.0266 to 0.266 µM)
Nc1ncccc1-c1cc(Cc2ccc(N3CCC3c3ccccc3)nc2)no1 (stereo not drawn) [compound 188, 3-(3-((6-(2-phenylazetidin-1-yl)pyridin-3-yl)methyl)isoxazol-5-yl)pyridin-2-amine]	> 1	> 1	> 1	0.1 to 1	> 1
